We go through one compound from PMC11576293, “New series of 4,6-diaryl pyrimidines: facile synthesis and antiproliferative activity as dual EGFR/VEGFR-2 inhibitors” (Frontiers in Chemistry, 2024).

Bounds are passed on as bounds.

The first assay concerns HOP-62. Briefly: NCI-60 single-dose screen. In kind it is cell-based. The following applies: Homo sapiens, single dose 10 µM, '-' = no inhibition, read-out: % Growth Inhibition. Summed up: (§1)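 Single concentration of 10 μM applied to every line of the 60-cell-line NCI panel. Testing performed by NCI DTP.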
Turning to `CCCSc1nc(-c2ccc(Cl)cc2)cc(-c2ccc(OC)c(OC)c2)n1` [Compound 25, 4-(4-Chlorophenyl)-6-(3,4-dimethoxyphenyl)-2-(propylthio)pyrimidine], the inhibition at 10 µM was below 0%.

The test system of a further assay is U251. Briefly: NCI-60 single-dose screen. The following applies: Homo sapiens, U-251, single dose 10 µM, '-' = no inhibition, read-out: % Growth Inhibition. The class given is cell-based. Summed up: as §1
For the compound `CCCSc1nc(-c2ccc(Cl)cc2)cc(-c2ccc(OC)c(OC)c2)n1` [Compound 25, 4-(4-Chlorophenyl)-6-(3,4-dimethoxyphenyl)-2-(propylthio)pyrimidine], the inhibition at 10 µM turned out to be 7.53%.

The test system of a further assay is NCI-H23. Nature of the assay: NCI-60 single-dose screen. The class given is cell-based. The following applies: Homo sapiens, single dose 10 µM, '-' = no inhibition, read-out: % Growth Inhibition. Summed up: as §1
As to `CCCSc1nc(-c2ccc(Cl)cc2)cc(-c2ccc(OC)c(OC)c2)n1` [Compound 25, 4-(4-Chlorophenyl)-6-(3,4-dimethoxyphenyl)-2-(propylthio)pyrimidine], the inhibition at 10 µM was found to be 2.74%.

In a further assay the test system is K-562. Nature of the assay: NCI-60 single-dose screen. The class given is cell-based. The conditions noted are these: Homo sapiens, K562, single dose 10 µM, '-' = no inhibition, read-out: % Growth Inhibition. In a few lines:
as §1
On to `CCCSc1nc(-c2ccc(Cl)cc2)cc(-c2ccc(OC)c(OC)c2)n1` [Compound 25, 4-(4-Chlorophenyl)-6-(3,4-dimethoxyphenyl)-2-(propylthio)pyrimidine], for which the inhibition at 10 µM is 27.1%.

A further assay deals with MDA-MB-468. Briefly: NCI-60 single-dose screen. In kind it is cell-based. The following applies: Homo sapiens, single dose 10 µM, '-' = no inhibition, read-out: % Growth Inhibition. Summed up:
as §1
As to `CCCSc1nc(-c2ccc(Cl)cc2)cc(-c2ccc(OC)c(OC)c2)n1` [Compound 25, 4-(4-Chlorophenyl)-6-(3,4-dimethoxyphenyl)-2-(propylthio)pyrimidine], the inhibition at 10 µM is below 0%.

A further assay has as its system IGROV1. Nature of the assay: NCI-60 single-dose screen. The conditions noted are these: Homo sapiens, IGROV-1, single dose 10 µM, '-' = no inhibition, read-out: % Growth Inhibition. The class given is cell-based. Summed up:
as §1
`CCCSc1nc(-c2ccc(Cl)cc2)cc(-c2ccc(OC)c(OC)c2)n1` [Compound 25, 4-(4-Chlorophenyl)-6-(3,4-dimethoxyphenyl)-2-(propylthio)pyrimidine]: the inhibition at 10 µM was below 0%.

A further assay has as its system MCF7. Nature of the assay: NCI-60 single-dose screen. The conditions noted are these: Homo sapiens, single dose 10 µM, '-' = no inhibition, read-out: % Growth Inhibition. In kind it is cell-based. Summed up: as §1
For `CCCSc1nc(-c2ccc(Cl)cc2)cc(-c2ccc(OC)c(OC)c2)n1` [Compound 25, 4-(4-Chlorophenyl)-6-(3,4-dimethoxyphenyl)-2-(propylthio)pyrimidine], the inhibition at 10 µM amounted to 17.5%.

The subject of a further assay is RPMI-8226. Nature of the assay: NCI-60 single-dose screen. The class given is cell-based. The following applies: Homo sapiens, single dose 10 µM, '-' = no inhibition, read-out: % Growth Inhibition. Summed up: as §1
Take `CCCSc1nc(-c2ccc(Cl)cc2)cc(-c2ccc(OC)c(OC)c2)n1` [Compound 25, 4-(4-Chlorophenyl)-6-(3,4-dimethoxyphenyl)-2-(propylthio)pyrimidine]: the inhibition at 10 µM is 10.8%.

The next assay deals with M14. Nature of the assay: NCI-60 single-dose screen. The conditions noted are these: Homo sapiens, single dose 10 µM, '-' = no inhibition, read-out: % Growth Inhibition. The class given is cell-based. In a few lines:
as §1
For the compound `CCCSc1nc(-c2ccc(Cl)cc2)cc(-c2ccc(OC)c(OC)c2)n1` [Compound 25, 4-(4-Chlorophenyl)-6-(3,4-dimethoxyphenyl)-2-(propylthio)pyrimidine], the inhibition at 10 µM is below 0%.

The test system of the next assay is MDA-MB231/ATCC. Briefly: NCI-60 single-dose screen. In kind it is cell-based. The conditions noted are these: Homo sapiens, MDA-MB-231, single dose 10 µM, '-' = no inhibition, read-out: % Growth Inhibition. In a few lines:
as §1
Consider `CCCSc1nc(-c2ccc(Cl)cc2)cc(-c2ccc(OC)c(OC)c2)n1` [Compound 25, 4-(4-Chlorophenyl)-6-(3,4-dimethoxyphenyl)-2-(propylthio)pyrimidine], for which the inhibition at 10 µM came out at 16.2%.

The next assay relates to OVCAR-8. Nature of the assay: NCI-60 single-dose screen. The class given is cell-based. The following applies: Homo sapiens, single dose 10 µM, '-' = no inhibition, read-out: % Growth Inhibition. Summed up:
as §1
With `CCCSc1nc(-c2ccc(Cl)cc2)cc(-c2ccc(OC)c(OC)c2)n1` [Compound 25, 4-(4-Chlorophenyl)-6-(3,4-dimethoxyphenyl)-2-(propylthio)pyrimidine], the inhibition at 10 µM was 6.34%.

The test system of the next assay is CCRF-CEM. Briefly: NCI-60 single-dose screen. The class given is cell-based. The conditions noted are these: Homo sapiens, single dose 10 µM, '-' = no inhibition, read-out: % Growth Inhibition. Summed up: as §1
`CCCSc1nc(-c2ccc(Cl)cc2)cc(-c2ccc(OC)c(OC)c2)n1` [Compound 25, 4-(4-Chlorophenyl)-6-(3,4-dimethoxyphenyl)-2-(propylthio)pyrimidine]: the inhibition at 10 µM is 11.2%.

For the next assay, the system named is SK-MEL-5. Briefly: NCI-60 single-dose screen. In kind it is cell-based. The following applies: Homo sapiens, single dose 10 µM, '-' = no inhibition, read-out: % Growth Inhibition. In a few lines: as §1
Consider `CCCSc1nc(-c2ccc(Cl)cc2)cc(-c2ccc(OC)c(OC)c2)n1` [Compound 25, 4-(4-Chlorophenyl)-6-(3,4-dimethoxyphenyl)-2-(propylthio)pyrimidine], for which the inhibition at 10 µM is 0.38%.

The next assay relates to OVCAR-4. Nature of the assay: NCI-60 single-dose screen. The class given is cell-based. The following applies: Homo sapiens, single dose 10 µM, '-' = no inhibition, read-out: % Growth Inhibition. Summed up: as §1
Turning to `CCCSc1nc(-c2ccc(Cl)cc2)cc(-c2ccc(OC)c(OC)c2)n1` [Compound 25, 4-(4-Chlorophenyl)-6-(3,4-dimethoxyphenyl)-2-(propylthio)pyrimidine], the inhibition at 10 µM was 20.2%.

The test system of the next assay is RXF 393. Briefly: NCI-60 single-dose screen. In kind it is cell-based. The following applies: Homo sapiens, single dose 10 µM, '-' = no inhibition, read-out: % Growth Inhibition. Summed up: as §1
Regarding `CCCSc1nc(-c2ccc(Cl)cc2)cc(-c2ccc(OC)c(OC)c2)n1` [Compound 25, 4-(4-Chlorophenyl)-6-(3,4-dimethoxyphenyl)-2-(propylthio)pyrimidine], the inhibition at 10 µM was 8.5%.

The next assay concerns A549/ATCC. Nature of the assay: NCI-60 single-dose screen. The class given is cell-based. The following applies: Homo sapiens, single dose 10 µM, '-' = no inhibition, read-out: % Growth Inhibition. Summed up:
as §1
As to `CCCSc1nc(-c2ccc(Cl)cc2)cc(-c2ccc(OC)c(OC)c2)n1` [Compound 25, 4-(4-Chlorophenyl)-6-(3,4-dimethoxyphenyl)-2-(propylthio)pyrimidine], the inhibition at 10 µM stood at 17.3%.

In another assay the test system is NCI-H522. Nature of the assay: NCI-60 single-dose screen. In kind it is cell-based. The following applies: Homo sapiens, single dose 10 µM, '-' = no inhibition, read-out: % Growth Inhibition. Summed up:
as §1
`CCCSc1nc(-c2ccc(Cl)cc2)cc(-c2ccc(OC)c(OC)c2)n1` [Compound 25, 4-(4-Chlorophenyl)-6-(3,4-dimethoxyphenyl)-2-(propylthio)pyrimidine]: the inhibition at 10 µM is 8%.

The next assay has as its system UACC-257. Briefly: NCI-60 single-dose screen. The conditions noted are these: Homo sapiens, single dose 10 µM, '-' = no inhibition, read-out: % Growth Inhibition. In kind it is cell-based. Summed up:
as §1
Consider `CCCSc1nc(-c2ccc(Cl)cc2)cc(-c2ccc(OC)c(OC)c2)n1` [Compound 25, 4-(4-Chlorophenyl)-6-(3,4-dimethoxyphenyl)-2-(propylthio)pyrimidine], for which the inhibition at 10 µM was found to be 24.8%.

A further assay deals with UACC-62. Nature of the assay: NCI-60 single-dose screen. In kind it is cell-based. The conditions noted are these: Homo sapiens, single dose 10 µM, '-' = no inhibition, read-out: % Growth Inhibition. In a few lines:
as §1
For `CCCSc1nc(-c2ccc(Cl)cc2)cc(-c2ccc(OC)c(OC)c2)n1` [Compound 25, 4-(4-Chlorophenyl)-6-(3,4-dimethoxyphenyl)-2-(propylthio)pyrimidine], the inhibition at 10 µM was 3.23%.

For a further assay, the system named is UO-31. Briefly: NCI-60 single-dose screen. In kind it is cell-based. The following applies: Homo sapiens, single dose 10 µM, '-' = no inhibition, read-out: % Growth Inhibition. In a few lines: as §1
For `CCCSc1nc(-c2ccc(Cl)cc2)cc(-c2ccc(OC)c(OC)c2)n1` [Compound 25, 4-(4-Chlorophenyl)-6-(3,4-dimethoxyphenyl)-2-(propylthio)pyrimidine], the inhibition at 10 µM came to 8.18%.

The next assay concerns HT29. Nature of the assay: NCI-60 single-dose screen. In kind it is cell-based. The following applies: Homo sapiens, HT-29, single dose 10 µM, '-' = no inhibition, read-out: % Growth Inhibition. Summed up:
as §1
`CCCSc1nc(-c2ccc(Cl)cc2)cc(-c2ccc(OC)c(OC)c2)n1` [Compound 25, 4-(4-Chlorophenyl)-6-(3,4-dimethoxyphenyl)-2-(propylthio)pyrimidine]: the inhibition at 10 µM turned out to be 14.7%.

In another assay the test system is PC-3. Briefly: NCI-60 single-dose screen. The class given is cell-based. The following applies: Homo sapiens, single dose 10 µM, '-' = no inhibition, read-out: % Growth Inhibition. In a few lines:
as §1
As for `CCCSc1nc(-c2ccc(Cl)cc2)cc(-c2ccc(OC)c(OC)c2)n1` [Compound 25, 4-(4-Chlorophenyl)-6-(3,4-dimethoxyphenyl)-2-(propylthio)pyrimidine], the inhibition at 10 µM amounted to 6.31%.

A further assay has as its system HCT-15. Nature of the assay: NCI-60 single-dose screen. In kind it is cell-based. The conditions noted are these: Homo sapiens, single dose 10 µM, '-' = no inhibition, read-out: % Growth Inhibition. In a few lines:
as §1
With `CCCSc1nc(-c2ccc(Cl)cc2)cc(-c2ccc(OC)c(OC)c2)n1` [Compound 25, 4-(4-Chlorophenyl)-6-(3,4-dimethoxyphenyl)-2-(propylthio)pyrimidine], the inhibition at 10 µM turned out to be 20.9%.

Usually inhibition stands for how much of the control response was suppressed.
